The values that follow come from patent publication US6849594B1, “Purification and use of human recombinant cartilage oligomeric matrix protein” (priority 1999, dated 2005).

Like-named read-outs stand apart in the source and are kept apart here. Bounds are passed on as bounds.

The Kd is a measure of binding affinity in units of concentration.

One assay has as its target T1, hCOMP (Homo sapiens, UniProt P49747).
T1 construct: transfected with full length human COMP cDNA, they were able to process and secrete hCOMP; made in house
The assay is described as follows: Affinity co-electrophoresis (ACE) binding of hCOMP to glycosaminoglycans. The source says: Affinity co-electrophoresis (ACE) was used to quantify the binding of hCOMP to heparin and other GAGs, including chondroitin sulfates from cartilage. Values are given in nM, and in cases where a standard deviation is reported, represent the mean of two determinations.
Affinity co-electrophoresis (ACE) (San Antonio et al., 1993) was used to quantify the binding of hCOMP to heparin and other commercially available GAGs derived from tissue sources, including chondroitin sulfates from cartilage, and values of Kd were measured. […] This is in agreement with our observation that hCOMP binds to heparin-Sepharose. […] To better ascertain potential roles of GAGs and proteoglycans in COMP function, heparan sulfate, keratan sulfate, and three chondroitin sulfates (chondroitin-6-sulfate, C6S; chondroitin-4-sulfate; C4S; and dermatan sulfate, DS) were tested for binding to hCOMP in the presence of 2 mM calcium using ACE (Table 1).
To further determine whether the conformation of the calcium-binding type 3 repeats was critical to GAG binding, hCOMP was tested for binding to heparin and C6S in the presence of 5 mM EDTA. […] While heparin binding was reduced only 3- to 5-fold by EDTA treatment, C6S binding appeared to be abolished by this treatment.

The subject of assay [1] is TC1a cells after 7- to 10-day culture in alginate beads. The assay is described as follows: Attachment of TC1a cells after alginate culture to coated protein. The format is cell-based, human. The source says: An alginate culture system was used to re-differentiate the chondrocytes as described (Robbins and Goldring, 1998; Goldring, 1998; Hauselmann et al., 1994; Bonaventure et al., 1994). Briefly, cells in monolayer culture were trypsinized and washed with phosphate buffered saline. Cells were resuspended in 1.2% solution of Keltone, LVCR alginate (Monsanto, St. Louis, Mo.) in 0.15 M NaCl at a final concentration of 4×10^6 cells/ml. The cell suspension was then passed through a 22 Gauge needle into 102 mM CaCl2. Ten minutes after instant gelation, beads were washed with 0.15 M NaCl, and cultured in 1:1 DME/F-12 containing 10% FBS and 25 μg/ml ascorbate. To prepare cells in the alginate culture system for attachment assays, 7- to 10-day alginate bead cultures were solubilized with 55 mM citrate/0.15 M NaCl, pH 6.0 solution as described (Robbins and Goldring, 1998). Released cells were washed once with PBS and once with HBS/C before they were resuspended in HBS/C containing 1% BSA at a final concentration of 2-2.5×10^5 cells/ml.
Immulon II 96-well plates (DYNEX, Chantilly, Va.) were coated with COMP at various concentrations in HBS/C or HBS containing 5 mM EDTA (HBS/E) at 4° C. overnight. […] The amount of cells attached to each well was quantified using CyQuant kit (Molecular Probes, Eugene, Oreg.). […]

Assay [2] has as its system Human costochondral cartilage cells. The assay is described as follows: Transwell chondrocyte migration assay. It is filed as cell-based. As to conditions: for chondrocyte migration: coated on underside of transwell membranes, 37° C., four hours. On the procedure:
(§1) Furthermore, as discussed in Example 5, COMP is a motility factor for chondrocyte migration. Human costochondral cartilage cells were used to test if COMP is active in promoting chondrocyte migration. COMP, as well as TSP1 and Vitrogen (Cohesion; Palo Alto, Calif.), at different concentrations, was coated on the underside of membranes of transwell migration assay wells. Chondrocyte cells, prepared as in the attachment assays, were loaded into the wells. Migration was allowed to go on at 37° C. for four hours. Nonmigratory cells remaining inside the wells were removed with cotton swabs. Cells which migrated to the underside of the membranes were quantified using a CyQuant kit.
as §1, with “Human” for “Furthermore, as discussed in Example 5, COMP is a motility factor for chondrocyte migration. Human”, “concentrations, were” for “concentrations, was”, “assay wells (Costar, Cambridge, Mass.).” for “assay wells.”, “Cells that” for “Cells which”, “CyQuant kit (Molecular Probes).” for “CyQuant kit.”

A short description of assay [3]: Direct calcium binding by equilibrium dialysis using 45CaCl2. The following applies: 0.3 mM free calcium concentration; mean±SD. How it is done: Direct calcium binding to COMP was measured by equilibrium dialysis using ^45CaCl2. Briefly, TSP1 and COMP were dialyzed in Slide-A-Lyzer dialysis units (Pierce, Rockford, Ill.) against dialysis buffer containing 0.3 mM CaCl2 and […] of ^45CaCl2. At the end of dialysis, 10 μl of protein sample and dialysis buffer were taken out for scintillation counting and protein determination. The number of calcium ions bound was calculated. At 0.3 mM free calcium concentration, each TSP1 subunit bound 10±2 calcium ions (mean±SD of four data points). This is in agreement with previous reports where 11-12 calcium ions were reported to bind to each TSP1 subunit (Lawler and Simons, 1983; Misenheimer and Mosher, 1995). Under the same conditions, each subunit of COMP bound 11±1 calcium ions. This is the first time it is shown that COMP binds calcium ions, and the result is consistent with the presence of highly homologous type 3 calcium binding repeats in COMP and other TSP family members.
Direct calcium binding to COMP was measured by equilibrium dialysis using ^45CaCl2. Briefly, TSP1 and COMP were dialyzed in Slide-A-Lyzer dialysis units (Pierce, Rockford, Ill.) against dialysis buffer containing 0.3 mM CaCl2 and 10 mCi/ml of ^45CaCl2. […] The number of calcium ions bound was calculated. […]
For orientation: In equilibrium dialysis free small molecules cross a membrane that holds back macromolecules.

Assay [4] has as its system TC1a cells (chondrocyte-derived cell line), monolayer culture. As to the kind of experiment: Attachment of TC1a cells grown in monolayer to coated protein. The format is cell-based, human. On the procedure:
To prepare cells grown in monolayer for attachment assays, cells grown in 10 cm tissue culture plates were washed twice with HEPES buffered saline (HBS), and treated with 1 ml of 0.1 mg/ml TPCK-treated trypsin (Worthington, Lakewood, N.J.) in HBS at 37° C. for 5 minutes. Trypsinization was stopped with 2 ml of 0.5 mg/ml soybean trypsin inhibitor (Sigma) in HBS with 1 mM CaCl2 (HBS/C). Cells were flushed off the plate as a single cell suspension, sedimented and washed twice with trypsin inhibitor solution. Subsequently, cells were resuspended in HBS/C containing 1% heat-inactivated bovine serum albumin (HI-BSA) at a final concentration of 2-2.5×10^5 cells/ml and used for attachment assays.
Immulon II 96-well plates (DYNEX, Chantilly, Va.) were coated with COMP at various concentrations in HBS/C or HBS containing 5 mM EDTA (HBS/E) at 4° C. overnight. The plates were then blocked with 1% HI-BSA in HBS/C or HBS/E, respectively, for 30 minutes at 37° C. After blocking, some wells coated with proteins in HBS/E were reduced with 20 mM dithiothreitol (DTT) in HBS/E for 30 minutes at 22° C. Wells were washed 4 times with HBS/C before addition of 100 μl of cells to each well and incubated for 2 hours at 37° C. At the end of the incubation, after examination under phase contrast microscopy, the plate was washed 3 times with HBS/C. The amount of cells attached to each well was quantified using CyQuant kit (Molecular Probes, Eugene, Oreg.).

For assay [5] the following is noted: previous reports (Lawler and Simons, 1983; Misenheimer and Mosher, 1995); cited from earlier work.
[6] abbreviates: 2 mM Ca2+, ACE, > means no binding observed at any protein concentration, read-out: COMP, Kd in 2 mM Ca^2+.
Setting [7] is: 5 mM EDTA, ACE, > means no binding observed at any protein concentration, read-out: COMP, Kd in 5 mM EDTA.

T1 sequence (P49747 21-757): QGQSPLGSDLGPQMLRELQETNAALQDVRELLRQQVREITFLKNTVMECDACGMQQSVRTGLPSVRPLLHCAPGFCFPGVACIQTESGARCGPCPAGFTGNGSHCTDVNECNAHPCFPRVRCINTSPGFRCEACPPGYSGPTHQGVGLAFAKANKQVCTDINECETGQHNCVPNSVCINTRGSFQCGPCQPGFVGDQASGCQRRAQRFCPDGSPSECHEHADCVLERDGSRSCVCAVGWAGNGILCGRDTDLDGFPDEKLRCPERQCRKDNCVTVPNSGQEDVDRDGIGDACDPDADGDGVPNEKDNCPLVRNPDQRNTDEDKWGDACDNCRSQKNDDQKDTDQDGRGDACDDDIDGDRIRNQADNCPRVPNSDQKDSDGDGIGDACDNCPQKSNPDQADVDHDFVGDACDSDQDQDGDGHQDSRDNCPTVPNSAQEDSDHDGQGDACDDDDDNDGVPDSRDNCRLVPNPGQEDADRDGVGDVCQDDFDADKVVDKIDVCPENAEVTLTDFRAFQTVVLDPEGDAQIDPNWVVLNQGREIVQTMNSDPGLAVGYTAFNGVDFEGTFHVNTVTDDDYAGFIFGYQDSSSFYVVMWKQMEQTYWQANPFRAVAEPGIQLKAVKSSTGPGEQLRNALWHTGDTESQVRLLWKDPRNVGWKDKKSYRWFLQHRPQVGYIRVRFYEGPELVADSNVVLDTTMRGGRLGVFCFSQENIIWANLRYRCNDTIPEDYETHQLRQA

Take Heparin: the Kd is 89 nM at hCOMP (setting [6]) and 450 nM at hCOMP (setting [7]).
Consider “cartilage oligomeric matrix protein [hCOMP]”, for which the cell attachment result is recorded as “able to support attachment” in assay [1] (calcium replete form, re-differentiated TC1a cells) and “supported cell attachment in a dose-dependent manner” in assay [4] (protein in calcium replete conformation, coated on wells). The “decrease of level of attachment by chelation of calcium before coating” value in assay [1] (chelation of calcium before coating) is recorded as “approximately 50%”. In addition, the “chemoattractant potency compared with TSP1” value in assay [2] and in assay [2] (same concentration of 10 μg/ml) was “more potent chemoattractant than TSP1” throughout. Besides, the chondrocyte migration result in assay [2] is “good chemoattractant”. Moreover, the “calcium ions bound per subunit” value in assay [3] is listed as 11±1 calcium ions. Moreover, the “effect on attachment of treating with EDTA before coating” value in assay [4] (EDTA before coating) is recorded as “no obvious effect”. For the same substance, the “protein coating concentration at which cells also spread” value in assay [4] (calcium replete conformation) is no less than 5 µg/mL. Moreover, the “coating concentration at which cells attached and spread” value in assay [4] (dithiothreitol-treated) was 1 µg/mL. The “effect of reduction after coating on adhesive activity” value in assay [4] (reduced with DTT after coating, especially at low coating concentration) is given as “increased its adhesive activity”.
As for chondroitin-4-sulfate [C4S], the Kd at hCOMP (setting [6]) turned out to be 583 nM.
As for chondroitin-6-sulfate [C6S], the results for the Kd on hCOMP (setting [6]) and at hCOMP (setting [7]) were 403 nM and greater than 11000 nM, respectively. Further, the “binding to hCOMP after EDTA treatment (in words)” value on hCOMP (5 mM EDTA) was “abolished”.
Take dermatan sulfate [DS]: the Kd on hCOMP (setting [6]) was determined as 328 nM.
heparan sulfate [HS]: the Kd on hCOMP (in the presence of calcium, ACE, read-out: binding to hCOMP (Kd)) turned out to be 1200 nM.
Regarding human thrombospondin 1 [TSP1], the chondrocyte migration result is on record as “promotes chondrocyte migration” in assay [2] and “promoted chondrocyte migration” in assay [2] (listed as TSP 1). Further, the “calcium ions bound per subunit” value in assay [3] came to 10±2 calcium ions. Further, the “calcium ions bound per subunit, previous reports” value in assay [5] is given as 11-12 calcium ions.
Take keratan sulfate [KS]: on hCOMP (setting [6]), the Kd was greater than 11000 nM. The “binding to hCOMP (in words)” value at hCOMP (in the presence of calcium, ACE) was “did not bind”.
